Patent US20260028365A1 (BIOGEN MA INC., priority 2022, published 2026)

Columns and labels:
JAK2 = JAK2 (Homo sapiens (Human), UniProt O60674); assay: pSTAT5 Cell Assay (MSD, TF1 cells); assay type: cell-based; conditions: IL-3 stimulation, MSD
Protocol: Compounds of the disclosure were assessed for their ability to inhibit the JAK2 kinase activity on STAT5 utilizing an MSD-platform plate-based assay format. TF1 cells natively expressing STAT5 and JAK2 were serum-starved to reduce background phosphorylation levels, then cells were treated with compounds of disclosure for 1 hour with a 10-point four-fold dilution series starting at 10 μM. Cells were then stimulated with 30 ng/mL IL-3 for 15 minutes. Cells were then lysed and pSTAT5 levels were quantitated using an MSD plate-based assay with anti-STAT5 antibodies. The data were normalized and the percent activity versus log concentration of compound was fitted with a 4-parameter logistic model to generate a curve and an IC50 value.

JAK1 = JAK1 (Homo sapiens (Human), UniProt P23458); assay: pSTAT3 Cell Assay (MSD, TF1 cells); assay type: cell-based; conditions: IL-6 stimulation, MSD
Procedure, shortened: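 IC50 values derive from 4-parameter logistic fits of normalized pSTAT3 signal, measured by MSD with anti-STAT3 antibodies. TF1 cells, serum-starved beforehand, received compound for 1 hour (top concentration 10 μM, four-fold steps, 10 points) before a 15-minute IL-6 (30 ng/mL) stimulus.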

JH2 domain of human Tyk2 = JH2 domain of human Tyk2 (Homo sapiens (Human), UniProt P29597); assay: JH2 Biochemical Assay (TR-FRET probe displacement); assay type: binding; conditions: TR-FRET probe displacement, JH2 domain of human Tyk2
Tyk2 = Tyk2 (Homo sapiens (Human), UniProt P29597); assay: pSTAT4 Cell Assay (MSD, NK92 cells); assay type: cell-based; conditions: MSD
Sequence of Tyk2 (P29597 whole entry): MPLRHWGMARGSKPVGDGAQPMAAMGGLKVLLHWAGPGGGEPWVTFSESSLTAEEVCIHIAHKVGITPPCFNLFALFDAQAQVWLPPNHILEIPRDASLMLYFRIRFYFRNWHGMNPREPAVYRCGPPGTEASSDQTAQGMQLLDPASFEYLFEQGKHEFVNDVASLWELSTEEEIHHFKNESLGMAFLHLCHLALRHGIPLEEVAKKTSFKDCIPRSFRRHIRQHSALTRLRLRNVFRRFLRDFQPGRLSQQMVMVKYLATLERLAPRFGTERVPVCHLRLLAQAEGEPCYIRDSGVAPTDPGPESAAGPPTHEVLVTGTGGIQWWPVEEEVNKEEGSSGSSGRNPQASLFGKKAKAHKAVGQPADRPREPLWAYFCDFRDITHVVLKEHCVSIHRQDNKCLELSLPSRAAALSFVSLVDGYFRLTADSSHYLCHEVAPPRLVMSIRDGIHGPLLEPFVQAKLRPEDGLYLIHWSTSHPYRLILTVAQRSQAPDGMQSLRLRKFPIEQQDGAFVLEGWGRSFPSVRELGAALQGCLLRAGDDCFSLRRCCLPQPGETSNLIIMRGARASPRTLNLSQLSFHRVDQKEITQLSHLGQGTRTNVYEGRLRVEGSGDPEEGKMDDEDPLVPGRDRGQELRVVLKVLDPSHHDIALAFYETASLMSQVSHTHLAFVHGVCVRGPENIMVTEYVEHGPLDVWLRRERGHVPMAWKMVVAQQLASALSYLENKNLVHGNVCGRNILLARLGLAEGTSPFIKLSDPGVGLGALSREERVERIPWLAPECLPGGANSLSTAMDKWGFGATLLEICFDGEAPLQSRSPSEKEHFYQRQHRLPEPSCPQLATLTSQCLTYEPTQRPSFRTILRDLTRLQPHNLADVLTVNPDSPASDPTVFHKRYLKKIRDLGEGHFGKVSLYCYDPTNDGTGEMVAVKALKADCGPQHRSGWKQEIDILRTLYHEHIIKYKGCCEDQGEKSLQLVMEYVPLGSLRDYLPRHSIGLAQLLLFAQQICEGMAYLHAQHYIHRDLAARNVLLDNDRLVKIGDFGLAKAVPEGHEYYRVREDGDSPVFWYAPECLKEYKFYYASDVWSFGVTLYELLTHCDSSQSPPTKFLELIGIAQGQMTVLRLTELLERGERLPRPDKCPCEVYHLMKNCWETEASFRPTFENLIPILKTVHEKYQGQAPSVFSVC

Sequence of JAK1 (P23458 whole entry): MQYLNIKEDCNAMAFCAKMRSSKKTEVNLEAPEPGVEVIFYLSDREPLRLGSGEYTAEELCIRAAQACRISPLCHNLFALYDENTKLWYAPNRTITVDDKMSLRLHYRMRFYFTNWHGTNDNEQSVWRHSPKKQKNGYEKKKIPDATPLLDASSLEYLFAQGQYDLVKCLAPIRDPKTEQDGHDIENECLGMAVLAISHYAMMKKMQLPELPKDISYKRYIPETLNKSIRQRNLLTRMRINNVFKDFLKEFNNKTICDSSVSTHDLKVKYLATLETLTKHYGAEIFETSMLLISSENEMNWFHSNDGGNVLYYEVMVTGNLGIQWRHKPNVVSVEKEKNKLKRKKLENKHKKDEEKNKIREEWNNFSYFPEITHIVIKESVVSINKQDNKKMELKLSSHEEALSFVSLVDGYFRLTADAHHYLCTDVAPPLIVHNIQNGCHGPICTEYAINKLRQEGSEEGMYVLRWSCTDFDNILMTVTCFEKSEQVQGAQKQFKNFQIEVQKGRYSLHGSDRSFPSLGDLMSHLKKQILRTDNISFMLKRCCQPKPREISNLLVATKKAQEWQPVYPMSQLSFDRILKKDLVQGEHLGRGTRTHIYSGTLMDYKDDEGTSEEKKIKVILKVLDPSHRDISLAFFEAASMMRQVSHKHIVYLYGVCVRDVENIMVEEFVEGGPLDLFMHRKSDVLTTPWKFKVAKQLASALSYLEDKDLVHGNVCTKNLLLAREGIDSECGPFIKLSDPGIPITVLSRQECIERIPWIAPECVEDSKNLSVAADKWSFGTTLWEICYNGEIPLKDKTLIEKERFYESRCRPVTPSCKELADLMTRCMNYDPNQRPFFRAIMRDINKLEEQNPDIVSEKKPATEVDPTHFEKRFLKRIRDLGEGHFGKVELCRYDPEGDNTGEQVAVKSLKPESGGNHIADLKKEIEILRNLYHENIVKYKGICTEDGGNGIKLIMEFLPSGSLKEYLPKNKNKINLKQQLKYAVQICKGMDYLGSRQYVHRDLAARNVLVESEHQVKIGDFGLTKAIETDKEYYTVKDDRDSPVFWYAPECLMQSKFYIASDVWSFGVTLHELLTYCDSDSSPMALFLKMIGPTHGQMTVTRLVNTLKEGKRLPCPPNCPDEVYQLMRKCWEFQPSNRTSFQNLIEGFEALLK
Sequence of JAK2 (O60674 whole entry): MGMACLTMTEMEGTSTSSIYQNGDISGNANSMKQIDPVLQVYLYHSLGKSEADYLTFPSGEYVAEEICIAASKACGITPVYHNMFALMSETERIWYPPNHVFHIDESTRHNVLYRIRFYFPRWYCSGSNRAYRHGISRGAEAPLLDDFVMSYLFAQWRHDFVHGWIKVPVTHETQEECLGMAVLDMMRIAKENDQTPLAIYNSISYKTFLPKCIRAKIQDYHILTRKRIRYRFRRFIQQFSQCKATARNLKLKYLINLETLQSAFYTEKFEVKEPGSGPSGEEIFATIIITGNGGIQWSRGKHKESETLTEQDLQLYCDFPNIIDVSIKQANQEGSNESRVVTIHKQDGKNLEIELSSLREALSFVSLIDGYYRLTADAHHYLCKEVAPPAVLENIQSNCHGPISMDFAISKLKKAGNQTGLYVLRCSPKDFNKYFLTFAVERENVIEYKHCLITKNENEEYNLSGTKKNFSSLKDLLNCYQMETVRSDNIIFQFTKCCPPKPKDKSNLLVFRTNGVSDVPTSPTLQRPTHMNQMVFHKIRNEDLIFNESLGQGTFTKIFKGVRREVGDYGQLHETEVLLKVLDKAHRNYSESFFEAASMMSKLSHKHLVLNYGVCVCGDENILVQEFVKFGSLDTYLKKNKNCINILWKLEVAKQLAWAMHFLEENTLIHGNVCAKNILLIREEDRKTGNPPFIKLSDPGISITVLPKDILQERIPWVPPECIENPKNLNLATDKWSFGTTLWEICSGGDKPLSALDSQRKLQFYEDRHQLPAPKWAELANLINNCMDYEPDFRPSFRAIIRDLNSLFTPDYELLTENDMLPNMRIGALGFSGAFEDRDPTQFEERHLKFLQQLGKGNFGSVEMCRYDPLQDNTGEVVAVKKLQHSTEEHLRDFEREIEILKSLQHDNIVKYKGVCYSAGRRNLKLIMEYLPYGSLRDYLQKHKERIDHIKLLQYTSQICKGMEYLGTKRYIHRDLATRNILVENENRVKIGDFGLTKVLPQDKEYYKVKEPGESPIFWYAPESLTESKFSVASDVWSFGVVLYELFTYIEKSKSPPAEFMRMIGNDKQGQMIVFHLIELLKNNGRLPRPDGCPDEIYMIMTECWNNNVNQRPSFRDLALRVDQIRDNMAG
Sequence of JH2 domain of human Tyk2 (P29597 575-876): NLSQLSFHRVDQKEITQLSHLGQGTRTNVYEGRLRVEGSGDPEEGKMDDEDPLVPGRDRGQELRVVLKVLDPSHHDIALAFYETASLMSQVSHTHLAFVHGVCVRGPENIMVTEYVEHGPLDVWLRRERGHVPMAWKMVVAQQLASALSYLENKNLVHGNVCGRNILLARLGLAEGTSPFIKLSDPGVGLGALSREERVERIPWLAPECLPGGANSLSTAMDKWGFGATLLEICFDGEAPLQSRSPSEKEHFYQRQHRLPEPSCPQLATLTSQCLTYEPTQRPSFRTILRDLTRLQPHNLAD

| SMILES | IC50 (JAK2) [nM] | IC50 (JAK1) [nM] | IC50 (JH2 domain of human Tyk2) [nM] | IC50 (Tyk2) [nM] |
| --- | --- | --- | --- | --- |
| CCOc1cnc(NC(C)=O)cc1Nc1cc(OCCOC)nc(C(C)(F)F)n1 [Example 32, N-(4-((2-(1,1-difluoroethyl)-6-(2-methoxyethoxy)pyrimidin-4-yl)amino)-5-ethoxypyridin-2-yl)acetamide] | ≥ 1000 | ≥ 1000 | ≤ 10 | 10 to 100 |
| CCc1cc(Nc2cc(NC(C)=O)ncc2OC)nc(C(C)(F)F)n1 [Example 36, N-(4-((2-(1,1-difluoroethyl)-6-ethylpyrimidin-4-yl)amino)-5-methoxypyridin-2-yl)acetamide] | ≥ 1000 | ≥ 1000 | ≤ 10 | 10 to 100 |
| COCCOc1cc(Nc2cc(NC(C)=O)ncc2OC)nc(C(C)(F)F)n1 [Example 37, N-(4-((2-(1,1-difluoroethyl)-6-(2-methoxyethoxy)pyrimidin-4-yl)amino)-5-methoxypyridin-2-yl)acetamide] | ≥ 1000 | ≥ 1000 | ≤ 10 | 100 to 1000 |
| CC(=O)Nc1cc(Nc2cc(C)nc(C(C)(F)F)n2)c(OC(C)C)cn1 [Example 39, N-(4-((2-(1,1-difluoroethyl)-6-methylpyrimidin-4-yl)amino)-5-isopropoxypyridin-2-yl)acetamide] | ≥ 1000 | ≥ 1000 | ≤ 10 | 10 to 100 |
| COc1cnc(NC(C)=O)cc1Nc1cc(C)nc(C(C)(F)F)n1 [Example 46, N-(4-((2-(1,1-difluoroethyl)-6-methylpyrimidin-4-yl)amino)-5-methoxypyridin-2-yl)acetamide] | ≥ 1000 | ≥ 1000 | ≤ 10 | 10 to 100 |
| [2H]C([2H])([2H])C([2H])([2H])Oc1cnc(NC(C)=O)cc1Nc1cc(C)nc(C(C)(F)F)n1 [Example 49, N-(4-((2-(1,1-difluoroethyl)-6-methylpyrimidin-4-yl)amino)-5-(ethoxy-d5)pyridin-2-yl)acetamide] | ≥ 1000 | ≥ 1000 | ≤ 10 | 10 to 100 |
| COc1cc(Nc2cc(NC(C)=O)ncc2-c2ccn(C)n2)nc(C(C)(F)F)n1 [Example 50, N-(4-((2-(1,1-difluoroethyl)-6-methoxypyrimidin-4-yl)amino)-5-(1-methyl-1H-pyrazol-3-yl)pyridin-2-yl)acetamide] | ≥ 1000 | ≥ 1000 | ≤ 10 | ≤ 10 |
| COc1cnc(NC(C)=O)cc1Nc1cc(C(C)C)nc(C(C)(F)F)n1 [Example 52, N-(4-((2-(1,1-difluoroethyl)-6-isopropylpyrimidin-4-yl)amino)-5-methoxypyridin-2-yl)acetamide] | ≥ 1000 | ≥ 1000 | ≤ 10 | 10 to 100 |
| COCCOc1cnc(NC(C)=O)cc1Nc1cc(C2CC2)nc(C(C)(F)F)n1 [Example 66, N-(4-((6-cyclopropyl-2-(1,1-difluoroethyl)pyrimidin-4-yl)amino)-5-(2-methoxyethoxy)pyridin-2-yl)acetamide] | ≥ 1000 | ≥ 1000 | ≤ 10 | ≤ 10 |
| COCCOc1cnc(NC(C)=O)cc1Nc1cncc(C(C)(F)F)n1 [Example 67, N-(4-((6-(1,1-difluoroethyl)pyrazin-2-yl)amino)-5-(2-methoxyethoxy)pyridin-2-yl)acetamide] | ≥ 1000 | ≥ 1000 | ≤ 10 | 10 to 100 |
| CCc1cc(Nc2cc(NC(C)=O)ncc2OCCCOC)nc(C(C)(F)F)n1 [Example 69, N-(4-((2-(1,1-difluoroethyl)-6-ethylpyrimidin-4-yl)amino)-5-(3-methoxypropoxy)pyridin-2-yl)acetamide] | ≥ 1000 | ≥ 1000 | ≤ 10 | 10 to 100 |
| COCCOc1cnc(NC(C)=O)cc1Nc1cc(OC(C)C)nc(C(C)(F)F)n1 [Example 76, N-(4-((2-(1,1-difluoroethyl)-6-isopropoxypyrimidin-4-yl)amino)-5-(2-methoxyethoxy)pyridin-2-yl)acetamide] | ≥ 1000 | ≥ 1000 | ≤ 10 | ≤ 10 |
| CCOc1cc(Nc2cc(NC(C)=O)ncc2OCCOC)nc(C(C)(F)F)n1 [Example 77, N-(4-((2-(1,1-difluoroethyl)-6-ethoxypyrimidin-4-yl)amino)-5-(2-methoxyethoxy)pyridin-2-yl)acetamide] | ≥ 1000 | ≥ 1000 | ≤ 10 | ≤ 10 |
| CCc1cc(Nc2cc(NC(=O)OC)ncc2OCCOC)nc(C(C)(F)F)n1 [Example 87, methyl (4-((2-(1,1-difluoroethyl)-6-ethylpyrimidin-4-yl)amino)-5-(2-methoxyethoxy)pyridin-2-yl)carbamate] | ≥ 1000 | ≥ 1000 | ≤ 10 | ≤ 10 |
| CCC(=O)Nc1cc(Nc2cc(CC)nc(C(C)(F)F)n2)c(OCCOC)cn1 [Example 88, N-(4-((2-(1,1-difluoroethyl)-6-ethylpyrimidin-4-yl)amino)-5-(2-methoxyethoxy)pyridin-2-yl)propionamide] | ≥ 1000 | ≥ 1000 | ≤ 10 | ≤ 10 |
| COc1cnc(NC(C)=O)cc1Nc1cc(OC2CC2)nc(C(C)(F)F)n1 [Example 91, N-(4-((6-cyclopropoxy-2-(1,1-difluoroethyl)pyrimidin-4-yl)amino)-5-methoxypyridin-2-yl)acetamide] | ≥ 1000 | ≥ 1000 | ≤ 10 | 10 to 100 |
| CC(=O)Nc1cc(Nc2cc(C)nc(C(C)(F)F)n2)c(OCc2ccccn2)cn1 [Example 101, N-(4-((2-(1,1-difluoroethyl)-6-methylpyrimidin-4-yl)amino)-5-(pyridin-2-ylmethoxy)pyridin-2-yl)acetamide] | ≥ 1000 | ≥ 1000 | ≤ 10 | 10 to 100 |
| CC(=O)Nc1cc(Nc2cc(OC3CC3)nc(C(C)(F)F)n2)c(OCC2CCCO2)cn1 (centres unmarked) [Example 139, N-(4-((6-cyclopropoxy-2-(1,1-difluoroethyl)pyrimidin-4-yl)amino)-5-((tetrahydrofuran-2-yl)methoxy)pyridin-2-yl)acetamide] | ≥ 1000 | ≥ 1000 | ≤ 10 | ≤ 10 |
| CC(=O)Nc1cc(Nc2cc(C)nc(C(C)(F)F)n2)c(-c2ccc(C#N)cn2)cn1 [Example 145, N-(5-cyano-4′-((2-(1,1-difluoroethyl)-6-methylpyrimidin-4-yl)amino)-[2,3′-bipyridin]-6′-yl)acetamide] | ≥ 1000 | ≥ 1000 | ≤ 10 | ≤ 10 |
| CC(=O)Nc1cc(Nc2ccnc(C(C)(F)F)n2)c(-c2ccc(C#N)cn2)cn1 [Example 146, N-(5-cyano-4′-((2-(1,1-difluoroethyl)pyrimidin-4-yl)amino)-[2,3′-bipyridin]-6′-yl)acetamide] | ≥ 1000 | ≥ 1000 | ≤ 10 | ≤ 10 |
| CC(=O)Nc1cc(Nc2ccnc(C(C)(C)F)n2)c(-c2ccnc(C)n2)cn1 [Example 175, N-(4-((2-(2-fluoropropan-2-yl)pyrimidin-4-yl)amino)-5-(2-methylpyrimidin-4-yl)pyridin-2-yl)acetamide] | ≥ 1000 | ≥ 1000 | ≤ 10 | ≤ 10 |
| CC(=O)Nc1cc(Nc2cc(C)nc(C(C)(F)F)n2)c(-c2ncc(F)cn2)cn1 [Example 182, N-(4-((2-(1,1-difluoroethyl)-6-methylpyrimidin-4-yl)amino)-5-(5-fluoropyrimidin-2-yl)pyridin-2-yl)acetamide] | ≥ 1000 | ≥ 1000 | ≤ 10 | 10 to 100 |
| CC(=O)Nc1cc(Nc2ccnc(C(C)(F)F)n2)c(-c2ncc(F)cn2)cn1 [Example 185, N-(4-((2-(1,1-difluoroethyl)pyrimidin-4-yl)amino)-5-(5-fluoropyrimidin-2-yl)pyridin-2-yl)acetamide] | ≥ 1000 | ≥ 1000 | ≤ 10 | 10 to 100 |
| COc1cc(-c2cnc(NC(C)=O)cc2Nc2ccnc(C(C)(C)F)n2)ncn1 [Example 195, N-(4-((2-(2-fluoropropan-2-yl)pyrimidin-4-yl)amino)-5-(6-methoxypyrimidin-4-yl)pyridin-2-yl)acetamide] | ≥ 1000 | ≥ 1000 | ≤ 10 | 10 to 100 |
| CC(=O)Nc1cc(Nc2cc(C)nc(C(C)(C)F)n2)c(-c2cc(C)ncn2)cn1 [Example 200, N-(4-((2-(2-fluoropropan-2-yl)-6-methylpyrimidin-4-yl)amino)-5-(6-methylpyrimidin-4-yl)pyridin-2-yl)acetamide] | ≥ 1000 | ≥ 1000 | ≤ 10 | 10 to 100 |
| CC(=O)Nc1cc(Nc2ccnc(C(C)(F)F)n2)c(-c2cc(C)ncn2)cn1 [Example 201, N-(4-((2-(1,1-difluoroethyl)pyrimidin-4-yl)amino)-5-(6-methylpyrimidin-4-yl)pyridin-2-yl)acetamide] | ≥ 1000 | ≥ 1000 | ≤ 10 | 10 to 100 |
